Data from patent publication US20250177366A1, “COMPOSITIONS AND METHODS FOR ALLEVIATING PAIN AND REDUCING ADVERSIVENESS OF STIMULI” (UNIVERSITY OF WASHINGTON, priority 2021, published 2025).

Columns and labels:
larval zebrafish [1] = experiment: Chemical attraction/aversion assay with the test chemical itself as source (inherent attractiveness); type: in vivo, Zebrafish (Danio rerio)
Description: To confirm that AS1 itself was not attractive, the chemical attraction/aversion assay was used. […] Since the assay was modified to accommodate the inability to dissolve SKF into agarose at high concentrations (see Materials and Methods), the inherent attractiveness of AS1 was re-tested using this new format.
Chemical attraction/aversion assays. The agarose attraction/aversion assay was adapted from previously described experiments (Jordi et al., Sci. Adv. 2018; 4:1-15). For the AITC aversion assay, AITC and DMSO were added to molten 0.8% agarose to achieve a final concentration of 100 mM AITC and 2% DMSO. For the AS1 attraction/aversion assay, AS1 and DMSO were added to 0.8% molten agar to achieve final concentrations of 50 mM and 2%, respectively. To construct the test chambers, the lids of 10×10 cm square petri dishes (insert cat #and company) were lined on four sides with either the test (chemical-containing) or plain agarose (300 μL per side) and allowed to solidify. For all experiments, 30-40 randomly selected 6 dpf zebrafish were caught with a 10 mL pipette pump (Bel-Air Products, cat #: 13683C) equipped with a glass wide-bored Pasteur pipet (Fisher Scientific, cat #: 22-037-540) and deposited into a standard 10 cm diameter petri dish (Fisher Scientific, cat #: 07-202-031). As much E2 media as possible was carefully removed using the same pipette. For single incubation experiments, 30 mL of 1× solutions of the control or test chemical was added to each petri dish, and fish were incubated for 10 minutes at 28.5° C. For double incubation experiments, 15 mL of 1× solutions containing control (DMSO) or test chemicals was added to the larvae-containing petri dish. […] Swimming behavior was immediately recorded for 20 minutes using the same high-definition camcorder in the thermal preference assays.
For the SKF attraction/aversion assay, custom 10 cm×10 cm plates using clear resin (Formlabs, cat #: RS-F2-GPCL-04) and a Form 3+3D printer (Formlabs, cat #: PKG-F3-WSVC-BASIC) were designed. […] Swimming behavior was then recorded for 20 minutes. […]

larval zebrafish [2] = experiment: Thermal preference assay (28.5° C. vs 37.5° C.), non-sensitized; type: in vivo, Zebrafish (Danio rerio)
Experimental: Thermal preference assay. […] Once an entire plate was loaded with fish, the appropriate incubation solution was added. […] Following incubation in all experiments, the choice testing plate was transported to a dual solid-state heat/cool plate (AHP-1200° C. P; Teca) and centered such that half of each arena was positioned over each side of the heat/cool plate. […] Locomotor behavior was recorded using a Canon high-definition video camcorder suspended at a fixed position above the choice testing plate. Each trial was four minutes in duration.
For single-incubation assays (e.g. testing single chemicals), larval zebrafish were caught in 100 μL E2 media and 100 μL of the control (2% DMSO) or test chemical at 2× concentration was added to each well to achieve the final desired concentration. […] The final DMSO concentration in all solutions was 1%.

sigma-1 receptor = target: T1, sigma-1 receptor (Homo sapiens, UniProt Q99720); experiment: PDSP radioligand binding assay; details: PDSP screen
T1 construct: Psychoactive Drug Screening Program (PDSP)
T1 sequence (Q99720 whole entry, species assumed): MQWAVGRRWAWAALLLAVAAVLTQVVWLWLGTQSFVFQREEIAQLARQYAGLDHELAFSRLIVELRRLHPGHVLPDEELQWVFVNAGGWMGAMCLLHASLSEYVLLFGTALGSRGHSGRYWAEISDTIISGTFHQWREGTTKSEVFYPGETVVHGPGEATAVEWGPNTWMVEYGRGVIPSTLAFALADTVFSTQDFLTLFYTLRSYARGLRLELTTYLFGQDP
Experimental: (§1) To further seek out the molecular target(s) of AS1, the resources of the Psychoactive Drug Screening Program (PDSP) (Besnard et al., Nature. 2012; 492:215-220) were utilized. […] While not being limited to mechanism or theory, to verify whether these receptors were involved in mediating the effects of AS1, the thermal preference assay following incubation in drugs that specifically acted upon these receptors was employed. […] Nor did treatment with the 5-HT2 s antagonist LY266097 replicate or reverse the effects of AS1 (FIG. 6). Incubation in either the specific sigma-1 receptor agonist (PRE-084) or antagonist (BD1063) similarly yielded no effects (FIG. 6).

[3] = test system: T2, 5-HT2a serotonin receptor (Homo sapiens); experiment: PDSP radioligand binding assay; details: PDSP screen
T2 construct: Psychoactive Drug Screening Program (PDSP)
T2 sequence (P41595 whole entry): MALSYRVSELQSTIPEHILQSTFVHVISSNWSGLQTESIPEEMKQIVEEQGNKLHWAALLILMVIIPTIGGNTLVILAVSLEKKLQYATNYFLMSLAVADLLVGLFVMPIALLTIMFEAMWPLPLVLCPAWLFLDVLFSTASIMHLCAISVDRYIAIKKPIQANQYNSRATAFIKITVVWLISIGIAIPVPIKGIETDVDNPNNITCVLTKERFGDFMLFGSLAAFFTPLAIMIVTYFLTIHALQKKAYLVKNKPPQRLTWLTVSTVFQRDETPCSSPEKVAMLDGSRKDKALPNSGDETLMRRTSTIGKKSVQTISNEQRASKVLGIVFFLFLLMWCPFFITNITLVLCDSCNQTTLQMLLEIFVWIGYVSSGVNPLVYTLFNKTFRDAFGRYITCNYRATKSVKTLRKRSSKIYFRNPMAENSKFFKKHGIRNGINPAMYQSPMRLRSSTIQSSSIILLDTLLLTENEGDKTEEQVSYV
Experimental: as §1

larval zebrafish [4] = experiment: AITC aversion assay (chemical attraction/aversion, AITC-infused agarose); type: in vivo, Zebrafish (Danio rerio); details: AITC 100 mM in agarose
Description: Whether the effects of AS1 extended beyond noxious temperature sensation or could also impact other somatosensory modalities was next explored. To accomplish this, a chemical attraction/aversion assay where a thin layer of agarose was deposited along the edges of a square arena (Jordi et al., Sci. Adv. 2018; 4:1-15) were adapted. Along one wall, the agarose contained the chemical to be tested, while the other three walls were lined with control agarose. It was anticipated that a chemical gradient would be established as chemical diffused from the agarose into the surrounding water. Larvae were pre-incubated in either vehicle or AS1 and then added to the arena and the distance of each larva from the chemical-infused agarose was measured. In control experiments where all four walls of the arena were lined with agarose only, AS1 and vehicle-treated larvae were dispersed evenly throughout the arena (FIG. 3). […] When the nociceptive chemical AITC (100 mM, 10,000× maximal effective dose) was tested, vehicle-treated larvae swam away from the AITC source.
Chemical attraction/aversion assays. The agarose attraction/aversion assay was adapted from previously described experiments (Jordi et al., Sci. Adv. 2018; 4:1-15). For the AITC aversion assay, AITC and DMSO were added to molten 0.8% agarose to achieve a final concentration of 100 mM AITC and 2% DMSO. For the AS1 attraction/aversion assay, AS1 and DMSO were added to 0.8% molten agar to achieve final concentrations of 50 mM and 2%, respectively. To construct the test chambers, the lids of 10×10 cm square petri dishes (insert cat #and company) were lined on four sides with either the test (chemical-containing) or plain agarose (300 μL per side) and allowed to solidify. For all experiments, 30-40 randomly selected 6 dpf zebrafish were caught with a 10 mL pipette pump (Bel-Air Products, cat #: 13683C) equipped with a glass wide-bored Pasteur pipet (Fisher Scientific, cat #: 22-037-540) and deposited into a standard 10 cm diameter petri dish (Fisher Scientific, cat #: 07-202-031). As much E2 media as possible was carefully removed using the same pipette. For single incubation experiments, 30 mL of 1× solutions of the control or test chemical was added to each petri dish, and fish were incubated for 10 minutes at 28.5° C. For double incubation experiments, 15 mL of 1× solutions containing control (DMSO) or test chemicals was added to the larvae-containing petri dish. Following a ten minute incubation, 15 mL of the second incubation solution (1× control or test chemical +/−2× AS1) was added to the petri dish, and the fish were incubated for a second ten minute block. The final concentration of DMSO in all solutions was 1%. In all double-incubation experiments, the final concentration of AS1 was 5 μM unless otherwise noted. After completion of the last incubation period, the contents of each petri dish were poured into separate agarose-lined square dishes. Swimming behavior was immediately recorded for 20 minutes using the same high-definition camcorder in the thermal preference assays.

[5] = 28.5 vs 37.5° C., dose-response 0-5 μM

- radioligand binding interaction (sigma-1 receptor): potentially weak interactions
- radioligand binding interaction [3]: potentially weak interactions
SMILES: CC(C)c1ccc(C(=O)Nc2ccncc2)cc1 [AS1, 4-propan-2-yl-N-pyridin-4-ylbenzamide]
- inherent attractiveness of chemical infused into agarose (larval zebrafish [1]; 50 mM AS1 in agarose on one side of square arena vs control agarose): did not approach it in a way that was appreciably different from control agarose
- inherent attractiveness of chemical deposited into trough (larval zebrafish [1]; 2 mL in trough of 3D-printed arena, SKF 25 μM, AS1 10 μM-1 mM): neutral or mildly aversive
- zone-dependent locomotor activity (swimming velocity) (larval zebrafish [2]; 28.5 vs 37.5° C. zones, compared to vehicle-treated larvae): inverted zone-dependent locomotor activity
- concentration that eliminates preference for either zone (larval zebrafish [2]; [5]): 1.25 µM
- concentrations that induce preference for the 37.5° C. zone (larval zebrafish [2]; [5]): > 2.5 µM
- preference in acute heat aversion (larval zebrafish [2]; 28.5° vs 37.5° C., 5 μM AS1 (highest dose)): evoked strong preference for the nociceptive stimulus
- Reverses 28.5° C. Choice? (larval zebrafish [2]; temperature preference 28.5° C. vs 37.5° C., larval zebrafish): Yes
- attraction/aversion to AITC source (larval zebrafish [4]; 1 μM AS1): unable to induce attraction to AITC
- attraction/aversion to AITC source (larval zebrafish [4]; 2.5 μM AS1): largely replicated the effects of 5 μM AS1
- attraction/aversion to AITC source (larval zebrafish [4]; 5 μM AS1): strongly preferred to be near the AITC source
